# According to patent US7647217B2, “Structure of the farnesoid X receptor ligand binding domain and methods of use therefor” (The Salk Institute for Biological Studies, priority 2002, dated 2010):
# System: IBABP mRNA in HT29-FXRFL cells
# Experiment: Northern blot of IBABP mRNA induction in HT29 stable cell lines
# Format: cell-based, human
# Experimental: 20 μg total RNA was isolated using Trizol (Invitrogen) and used for Northern blot analysis. cDNA probe for human IBABP was prepared and hybridized to the blot. Blots were normalized by β-actin expression.
# HepG2 or HT29-derived cell lines were typically cultured in medium containing superstripped FBS for 24 hr before the addition of a ligand or DMSO (vehicle) for an additional 24-48 hr. Total RNA was isolated using TRIzol reagent and was resolved (10 μg/lane) on a 1% agarose, 2.2 M formaldehyde gel, transferred to a nylon membrane (Hybond N^+; Amersham Biosciences, Inc.), and cross-linked to the membrane with UV light.
# cDNA probes were radiolabeled with [α-^32P]dCTP using the highprime labeling kit (Amersham Biosciences, Inc.). Membranes were hybridized using the QuikHyb hybridization solution (Stratagene, La Jolla, Calif.) according to the manufacturer's protocol. Blots were normalized for variations of RNA loading by hybridization to a control probe, either, 18 S ribosomal cDNA, or the ribosomal protein 36B4. The RNA levels were quantitated using a PhosphorImager (ImageQuant software; Molecular Dynamics, Inc., Sunnyvale, Calif.) in addition to being exposed to X-ray film.
# Human colon cells HT29 (FXR null until differentiated) were infected with retroviral vectors that expressed either FXR constructs and the puromycin-resistant gene or the puromycin-resistant gene alone. Puromycin resistant cells were isolated and pooled cell populations were propagated that harbored either the vector alone (HT29-BABE), overexpressed FXR full length (HT29-FXRFL), a non-functional FXR truncated at the AF2 region (HT29-FXR-AF2), or a constitutively active FXR that has the VP16 activation domain fused N-terminal of the protein (HT29-VP16-FXR). Confirmation of the successful establishment of the different stable cell lines was established via northern blot analysis of FXR message levels in the cells (see FIG. 4A). […]
# The ability of the novel compounds identified herein to induce IBABP gene expression in this cell system was also examined. Total RNA from HT29 stable cells treated overnight with fexaramine, fexarine and fexarene was probed for IBABP gene expression (see FIG. 4D).
# [1] = HT29-FXRFL, overnight treatment
smiles,measurement,setting,value
"C[C@H](CCC(=O)O)[C@H]1CC[C@H]2[C@@H]3[C@H](O)C[C@@H]4C[C@H](O)CC[C@]4(C)[C@H]3CC[C@]12C [CDCA, chenodeoxycholic acid, reference compound]",induction of IBABP mRNA in control lines,HT29-BABE or HT29-FXR-AF2 cell lines,No induction
same,concentration of maximal activation of the IBABP gene,[1],100 µM
same,induction of IBABP mRNA,[1],robust concentration dependent induction
